From PubChem BioAssay AID248 (DTP/NCI, 2004)
Inconclusive results and toxic doses are left out. No stated cut-off is given here; in the data, active means T/C of 150% or more; inactive means T/C below 125%.

System: L1210 leukemia ip in BDF1 mice, survival T/C
Experiment: NCI In Vivo Anticancer Drug Screen. Data for tumor model L1210 Leukemia (intraperitoneal) in B6D2F1 (BDF1) mice
Conditions: endpoint: mean survival time, higher = longer survival
Outline: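 Read-out is survival time, reported as the treated-group measurement over the vehicle-control measurement.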

[1] = dose: 100.0 mg/kg/injection, schedule: Q01DX009 (ip), vehicle: saline with Tween-80
[2] = dose: 200.0 mg/kg/injection, schedule: Q01DX009 (ip), vehicle: saline with Tween-80
[3] = dose: 100.0 mg/kg/injection, schedule: Q01DX001 (ip), vehicle: carboxymethylcellulose (CMC)
[4] = dose: 200.0 mg/kg/injection, schedule: Q01DX001 (ip), vehicle: carboxymethylcellulose (CMC)
[5] = dose: 400.0 mg/kg/injection, schedule: Q01DX001 (ip), vehicle: carboxymethylcellulose (CMC)
[6] = dose: 100.0 mg/kg/injection, schedule: Q01DX009 (ip), vehicle: Klucel (hydroxypropylcellulose) (HPC)
[7] = dose: 200.0 mg/kg/injection, schedule: Q01DX009 (ip), vehicle: Klucel (hydroxypropylcellulose) (HPC)
[8] = dose: 400.0 mg/kg/injection, schedule: Q01DX009 (ip), vehicle: Klucel (hydroxypropylcellulose) (HPC)
[9] = dose: 100.0 mg/kg/injection, schedule: Q04DX003 (ip), vehicle: saline sonified
[10] = dose: 200.0 mg/kg/injection, schedule: Q04DX003 (ip), vehicle: saline sonified
[11] = dose: 400.0 mg/kg/injection, schedule: Q04DX003 (ip), vehicle: saline sonified
[12] = dose: 25.0 mg/kg/injection, schedule: Q01DX009 (ip), vehicle: saline with Tween-80
[13] = dose: 100.0 mg/kg/injection, schedule: Q04DX003 (ip), vehicle: saline with Tween-80
[14] = dose: 200.0 mg/kg/injection, schedule: Q04DX003 (ip), vehicle: saline with Tween-80

Measured: T/C

CN(C)c1ccc(/C=N/NC(=O)CNC(=O)Nc2nccs2)c(Cl)c1
inactive: dose: 50.0 mg/kg/injection, schedule: Q01DX009 (ip), vehicle: saline with Tween-80 100 % of control | [1] 89 % of control | [2] 89 % of control

c1ccc(-c2csc(NNc3nc(-c4ccccc4)cs3)n2)cc1
inactive: dose: 100.0 mg/kg/injection, schedule: Q04DX003 (ip), vehicle: Klucel (hydroxypropylcellulose) (HPC) 95 % of control | dose: 200.0 mg/kg/injection, schedule: Q04DX003 (ip), vehicle: Klucel (hydroxypropylcellulose) (HPC) 90 % of control | dose: 400.0 mg/kg/injection, schedule: Q04DX003 (ip), vehicle: Klucel (hydroxypropylcellulose) (HPC) 112 % of control

C=CCON(C)c1ccccc1
inactive: dose: 100.0 mg/kg/injection, schedule: Q04DX003 (ip), vehicle: saline 94 % of control | dose: 200.0 mg/kg/injection, schedule: Q04DX003 (ip), vehicle: saline 108 % of control | dose: 400.0 mg/kg/injection, schedule: Q04DX003 (ip), vehicle: saline 96 % of control

C=C(C)CCCC(C)CC#N (configuration not stated)
inactive: [3] 117 % of control | [4] 100 % of control | [5] 96 % of control

Cc1cccc(OCc2ccccc2)n1
inactive: dose: 50.0 mg/kg/injection, schedule: Q01DX001 (ip), vehicle: carboxymethylcellulose (CMC) 103 % of control | [3] 105 % of control | [4] 100 % of control | [5] 100 % of control

NCC(=O)NCCCCCCCCCCNC(=O)CN
inactive: dose: 10.0 mg/kg/injection, schedule: Q01DX Z (ip), vehicle: saline 98 % of control | dose: 30.0 mg/kg/injection, schedule: Q01DX Z (ip), vehicle: saline 95 % of control | dose: 100.0 mg/kg/injection, schedule: Q01DX Z (ip), vehicle: saline 98 % of control

Cc1ccc(Cl)c(NC(=O)Nc2cccc(F)c2)c1
inactive: [6] 94 % of control | [7] 87 % of control | [8] 89 % of control

Cc1ccc(NC(=O)Nc2ccccc2C(N)=O)cc1
inactive: [9] 92 % of control | [10] 92 % of control | [11] 89 % of control

Cc1ccc(S(=O)(=O)/N=S(/C)c2ccccc2)cc1 (configuration not stated)
inactive: dose: 100.0 mg/kg/injection, schedule: Q01DX009 (ip), vehicle: saline sonified 95 % of control | [9] 94 % of control | dose: 200.0 mg/kg/injection, schedule: Q01DX009 (ip), vehicle: saline sonified 108 % of control | [10] 106 % of control | dose: 400.0 mg/kg/injection, schedule: Q01DX009 (ip), vehicle: saline sonified 97 % of control | [11] 103 % of control

O=P(NCCCO)(Oc1ccccc1)N(CCCl)CCCl (configuration not stated)
inactive: dose: 125.0 mg/kg/injection, schedule: Q01DX Z (ip), vehicle: saline 95 % of control | dose: 250.0 mg/kg/injection, schedule: Q01DX Z (ip), vehicle: saline 102 % of control | dose: 500.0 mg/kg/injection, schedule: Q01DX Z (ip), vehicle: saline 102 % of control

C/C(=N\N)c1ccc(Cl)cc1
inactive: dose: 6.25 mg/kg/injection, schedule: Q01DX009 (ip), vehicle: saline with Tween-80 93 % of control | dose: 12.5 mg/kg/injection, schedule: Q01DX009 (ip), vehicle: saline with Tween-80 101 % of control | [12] 96 % of control

CC(C)(CCl)c1ccccc1
inactive: dose: 100.0 mg/kg/injection, schedule: Q04DX002 (ip), vehicle: saline with Tween-80 107 % of control | dose: 200.0 mg/kg/injection, schedule: Q04DX002 (ip), vehicle: saline with Tween-80 88 % of control | dose: 400.0 mg/kg/injection, schedule: Q04DX002 (ip), vehicle: saline with Tween-80 88 % of control

O=C(CC1(Cl)C(F)(F)C(F)(F)C1(F)F)c1ccccc1
inactive: dose: 6.25 mg/kg/injection, schedule: Q01DX009 (ip), vehicle: saline 94 % of control | dose: 12.5 mg/kg/injection, schedule: Q01DX009 (ip), vehicle: saline 94 % of control | [12] 94 % of control | dose: 25.0 mg/kg/injection, schedule: Q01DX009 (ip), vehicle: saline 100 % of control

NC(=O)N1Cc2ccccc2Cc2ccccc2C1
inactive: [6] 101 % of control | [7] 92 % of control | [8] 95 % of control

CC(=O)N1C(=O)N(Cl)C(=O)C1(C)c1cccs1 (configuration not stated)
inactive: [1] 107 % of control | [13] 105 % of control | [2] 101 % of control | [14] 103 % of control | dose: 400.0 mg/kg/injection, schedule: Q01DX009 (ip), vehicle: saline with Tween-80 93 % of control | dose: 400.0 mg/kg/injection, schedule: Q04DX003 (ip), vehicle: saline with Tween-80 106 % of control

C=CC(N)=O (tested in a mixture with another compound)
inactive: dose: 100.0 mg/kg/injection, schedule: Q01DX001 (ip), vehicle: saline 99 % of control | dose: 200.0 mg/kg/injection, schedule: Q01DX001 (ip), vehicle: saline 99 % of control | dose: 400.0 mg/kg/injection, schedule: Q01DX001 (ip), vehicle: saline 89 % of control

Cc1cc(C(=O)Nc2ccc(NC3=NCCN3)cc2)cc(C(=O)Nc2ccc(NC3=NCCN3)cc2)c1
inactive: dose: 3.0 mg/kg/injection, schedule: Q01DX Z (ip), vehicle: saline 103 % of control | dose: 6.0 mg/kg/injection, schedule: Q01DX Z (ip), vehicle: saline 103 % of control | dose: 12.0 mg/kg/injection, schedule: Q01DX Z (ip), vehicle: saline 100 % of control | dose: 15.0 mg/kg/injection, schedule: Q01DX Z (ip), vehicle: saline 110 % of control

O=[N+]([O-])c1ccc(-c2ccc([N+](=O)[O-])c(-c3ccccc3)c2)cc1
inactive: [13] 93 % of control | [14] 88 % of control
